Residues, ends and D or L forms follow the SMILES beside them.
Legend:
[1] = test system: CEM-SS cells; assay: Cytotoxicity (MTS cell viability) in the HIV-1 assay; settings: peptide 10 micrograms per ml
[2] = test system: HIV-1IIIB; assay: HIV-1 antiviral assay (CPE reduction) in CEM-SS cells; assay type: cell-based; settings: peptide 10 micrograms per ml; 6 days post-infection; MTS readout
[3] = test system: Human A549 cells; assay: Apoptosis induction assay (Annexin-5); assay type: cell-based; settings: 24 hours
Description: Human A549 cells (carcinomic human alveolar basal epithelial cells) were utilized in the experiments employing the Annexin-5 apoptosis assay. […] Test peptide-micrograms per ml—were exposed for 24 hours to the A549 cells before they were analyzed for signs of apoptosis.

[4] = test system: Human A549 cells; assay: Propidium iodide cell cycle assay; assay type: cell-based; settings: 10 micrograms per ml, 24 hours, FACS
[5] = test system: hepatitis B virus (HBV) ayw strain; assay: HBV replication assay in HepG2-2.2.15 cells (TaqMan PCR of secreted HBV DNA); assay type: cell-based; settings: peptide 10 micrograms per ml, six days, HBV DNA in supernatant
[6] = Cell viability (dye uptake) in the HBV assay; assay type: cell-based; settings: human, HepG2-2.2.15 cells, peptide 10 micrograms per ml
[7] = test system: Human A549 cells; assay: Apoptosis prevention assay (C2 ceramide, Annexin-5); assay type: cell-based; settings: 10 micrograms per ml pretreatment 30 min
From the text: Human A549 cells (carcinomic human alveolar basal epithelial cells) were utilized in the experiments employing the Annexin-5 apoptosis assay.

[8] = test system: macrophages differentiated from human PBMC, TNF alpha production; assay: TNF alpha production assay (LPS-stimulated macrophages, ELISA); assay type: cell-based; settings: 10 micrograms per ml, lipopolysaccharide 200 ng/ml, overnight
From the text: Not stimulated macrophages served as negative background control.

[9] = in vitro; settings: human, CEM-SS cells (uninfected; cells plus peptide only)
[10] = test system: RAW 264.7 cells; assay: Phagocytosis assay (Fluorescein-labeled Escherichia coli, flow cytometry); assay type: cell-based, mouse; settings: 10 micrograms per ml, Fluorescein-labeled E. coli
Description: The samples were then analyzed by flow cytometry to determine the amount of phagocytosis as a function of brightness (the greater the phagocytic activity, the more fluorescence in the macrophage population). Data are reported as % positive and the mean fluorescence intensity (MFI) of positively stained cells.

[11] = test system: human peripheral blood mononuclear cells (PBMC), cyclic AMP generation; assay: cAMP induction assay (ELISA); assay type: cell-based; settings: 10 min at 37° C., forskolin 50 micrograms per ml
Description: The cAMP kit was used as an immunoassay for the quantitative determination of cyclic AMP generation in human peripheral blood mononuclear cells (PBMC). PBMC were placed in 96-well microtitier plates (50 microliters of cells at 4×10^6/ml) and 50 microliters of medium alone (background control), forskolin (cAMP positive control; 50 micrograms per ml), or test peptide were added. […] NaOH was added to neutralize the samples. Plates were centrifuged for 15 min at 2500 rpm and the supernatants removed. The supernatants (diluted 2-fold in assay buffer) were then assayed for the levels of cAMP by ELISA.

[12] = test system: Primary Human endothelial cells (HUVEC); assay: Endothelial cell migration assay; assay type: cell-based; settings: 10 micrograms per ml, 22 hours
[13] = test system: HCMV strain AD169; assay: HCMV plaque reduction assay in MRC-5 cells; settings: HCMV AD169 in MRC-5 cells; peptide 10 micrograms per ml; 7-10 days
[14] = test system: HUVEC; assay: Endothelial tube formation assay; assay type: cell-based, human; settings: 10 micrograms per ml, 20 hours
From the text: Positive control was vehicle only.

[15] = in vitro; settings: human, MRC-5 cells (embryonal lung fibroblasts)
[16] = test system: Human Peripheral Blood Mononuclear Cells (PBMC), B cell proliferation; assay: B cell proliferation assay (SAC plus IL-2 stimulated PBMC, 3H-thymidine); assay type: cell-based; settings: 10 micrograms per ml
[17] = test system: Human Peripheral Blood Mononuclear Cells (PBMC), T cell proliferation; assay: T cell proliferation assay (PHA-stimulated PBMC, 3H-thymidine); settings: 10 micrograms per ml
[18] = test system: spleen cells of Ovalbumin-immunized Balb/c mice; assay: Th1/Th2 cytokine profiling assay (Ovalbumin-restimulated spleen cells, CBA kit); assay type: cell-based, mouse; settings: 10 micrograms per ml; Ovalbumin restimulation; 72 hours
[19] = test system: HepG2-2.2.15 cells; assay: Cell viability (dye uptake) in the HBV assay; assay type: cell-based; settings: peptide 10 micrograms per ml

Cc1cn([C@H]2C[C@H](N=[N+]=[N-])[C@@H](CO)O2)c(=O)[nH]c1=O [AZT, reference compound]
% Cell viability [1]: 97%
% CPE reduction in HIV-1 infected CEM-SS cells [2]: 99%

CC[C@H](C)[C@H](NC(=O)[C@H](C)NC(=O)CNC(=O)[C@H](CCCNC(=N)N)NC(=O)[C@H](C)NC(=O)[C@H](CC(C)C)NC(=O)[C@H](CCC(=O)O)NC(=O)[C@H](CC(C)C)NC(=O)[C@H](C)NC(=O)[C@@H](N)CCC(=O)O)C(=O)N[C@@H](Cc1ccccc1)C(=O)N[C@@H](CCC(N)=O)C(=O)N[C@@H](C)C(N)=O [BINP] (H-EALELARGAIFQA-NH2)
% of induction [3]: 0.2%
Cell cycle analysis G0/G1 [4]: 57.9
Cell cycle analysis G2/M [4]: 12.2
Cell cycle analysis S [4]: 29.9
% inhibition of HBV replication in HEP G2 cells [5]: 8.2%
viability at 144 h, 10 micrograms per ml [6]: 96.9%
% prevention of ceramide induced apoptosis [7]: 0.0%
% of LPS induction [8]: 102.3%
viability at 10 micrograms per ml [9]: 99.1%
% of control phagocytosis [10]: 134.3%
% of Forskolin (positive control) induced cAMP formation [11]: 44.3%
% CPE reduction in HIV-1 infected CEM-SS cells [2]: 0.0%
% inhibition of migration [12]: 8%
% plaque reduction [13]: 1.0%
% inhibition of tube formation [14]: −1%
viability at 144 h [15]: 99.7%
% of SAC/IL2 induced control [16]: 96.5%
% of PHA induced Control [17]: 96.2%
IFNγ spleen cells; TH1 response (% of control) [18]: 133.9 % of control
IL-2 spleen cells (% of control) [18]: 0.0 % of control
IL-4 spleen cells; TH2 response (% of control) [18]: 0.0 % of control
IL-5 spleen cells; TH2 response (% of control) [18]: 50.3 % of control
TNF-a spleen cells; TH1 response (% of control) [18]: 97.0 % of control

Nc1ccn([C@@H]2CS[C@H](CO)O2)c(=O)n1 [Compound 3TC, Lamivudine, reference compound]
% Cell viability [19]: 95.8%

From US20100256043A1, “USE OF A PEPTIDE AS A THERAPEUTIC AGENT” (priority 2007, published 2010)
